According to article PMC2576538 (The Journal of Biological Chemistry, 2008):
Ends that are not written are not given here. * marks the point of attachment. Biotin = O=C1N[C@H]2[C@H](CS[C@H]2CCCCC(=O)*)N1

T1: GST-claudin-4, full length (mouse, UniProt O35054 1-210)
T1 sequence: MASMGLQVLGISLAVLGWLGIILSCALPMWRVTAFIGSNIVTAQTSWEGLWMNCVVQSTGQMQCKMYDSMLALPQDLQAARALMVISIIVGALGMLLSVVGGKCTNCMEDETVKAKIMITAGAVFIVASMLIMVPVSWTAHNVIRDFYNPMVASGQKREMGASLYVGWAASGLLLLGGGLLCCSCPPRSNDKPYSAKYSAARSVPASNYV


What was measured:
Cpe30 peptide = assay type: binding, Clostridium perfringens
[1] = biological target: Cpe17 (last C-terminal 17 amino acids of Cpe), biotinylated (Clostridium perfringens) (UniProt P01558); experiment: SPR
[2] = biological target: Biotin-Cpe30 (Clostridium perfringens) (UniProt P01558); experiment: SPR
[3] = biological target: T1, GST-claudin-4, full length; experiment: SPR

Molecule | Binding of immobilized Ecl2 peptide to Cpe30, in words (Cpe30 peptide) | further results
AHNVIRDFYNPMVASGQKREMGASL [B-Ecl2-B] | does not bind | –
GST-Cldn-4.R4 (GST fused to claudin-4 from Ecl2 through the C terminus) (domain or fragment) | – | Kd [1]: 1.57 nM; Kd [2]: 2.56 nM
AHNVIRDFYNPMVASGQKREMGASL (disulfide (positions not given here)) [B-lariat-Ecl2] | does not bind | –
(138)AHNVIRDFYNPM VASGQKREMGASL(160) [B-Ecl2] | does not bind | –
Biotin-SLDAGQYVLVMKANSSYSGNYPYSILFQKF [Biotin-Cpe30] | – | binding result [3]: binds
